Source: US20220089540A1 (Board of Trustees of Michigan State University, priority 2019, published 2022)
Values joined by “and” are separate entries in the source; they are usually repeats but may differ in a detail not shown here. Equal entries are not always repeated. Where two headings read alike, the source gives them in different places.

How the values were obtained:
[1] = system: PD-L1; assay: PD-L1 induction in macrophages or RAW264.7 cells with cancer cell conditioned media (flow cytometry); assay type: cell-based, mouse; conditions: for PD-L1: Table 2, Control 39.8, higher numbers indicate better upregulation; for PD-L1 Levels: Table 4, Control 43.3
Experimental: RAW 264.7 mouse macrophage-like (ATCC) and E18-14C-27 (Wu et al., Cancer Res. 62, 6376-6380 (2002)) cells were cultured in DMEM supplemented with 10% fetal bovine serum (FBS). RAW 264.7 cells were cultured at 50000/well in a 6 well plate for 24 hours to determine PD-L1 levels. E18-14C-27 cells were cultured for 72 hours in the presence of LG268 for protein levels. Conditioned media was collected from E18-14C-27 at 60-70% confluence for 24 hours; media was then collected and centrifuged at 900 rpm for 5 minutes to eliminate any cell debris.
For PD-L1 staining, RAW 264.7 cells were plated at 25000 cells/ml in 6 well plates for 24 hours before adding conditioned media from E18-14C-27 and LG268. RAW 264.7 cells were cultured for additional 24 hours with E18-14C-27 conditioned media and LG268. […] THP-1 cells were stained and analyzed for the levels of PD-L1 following the same protocol.
Inhibitory receptors on lymphocytes such as PD-1 (programmed cell death protein 1) are important immune checkpoints that protect against autoimmunity as the interaction between PD-L1 (ligand) and the PD-1 receptor expressed on immune cells suppresses T cell activity. Immuno-oncology is revolutionizing cancer treatment, and enormous research efforts are ongoing to identify drugs that upregulate PD-L1 so that they can be combined with checkpoint inhibitors to boost efficacy. Macrophages or RAW264.7 cells are treated with conditioned media from cancer cells and rexinoids, and PD-L1 expression determined by flow cytometry. Higher numbers indicate better upregulation of PD-LI.
Using methods described herein, macrophages or RAW264.7 cells were treated with selected rexinoids and with conditioned media from cancer cells. Structures of the rexinoids are shown below.
PD-L1 expression was determined by flow cytometry.

[2] = system: inducible nitric oxide synthase (iNOS); assay: iNOS suppression / NO assay in LPS-stimulated macrophages or RAW264.7 cells (Griess reaction); assay type: cell-based, mouse; conditions: for activity at 0.125 µM / activity at 0.5 µM / activity at 0.1 µM / activity at 0.3 µM: Mus musculus; for activity at 0.1 µM / activity at 0.3 µM: RAW264.7, 24 h; for activity at 0.1 µM: at 100 nM
Experimental: Macrophages or RAW264.7 like-cells were treated with various concentrations of rexinoids and stimulated with lipopolysaccaride (LPS) to activate inducible nitric oxide synthase (iNOS) to produce nitric oxide. This in vitro iNOS assay was rapid, reproducible, quantitative and predictive. Nitric oxide is implicated in the apoptosis of cancer cells via regulation of RXRs. There is a tight correlation between the % reduction of iNOS and efficacy in preclinical lung cancer models. Lower numbers indicate higher efficacy.
RAW264.7 cells were incubated with 300 nM rexinoids and stimulated with 1-2 ng/ml lipopolysaccaride (LPS) for 24 hours to activate inducible nitric oxide synthase (iNOS) to produce nitric oxide. Nitric oxide released into the media was measured by the Griess reaction.
Also, for Table 6, the iNOS suppression is the percent of the LPS-stimulated control where the compounds were measured at 100 nM or 300 nM.
Macrophages or RAW264.7 cells were treated with various concentrations of rexinoids listed in Table 7 and stimulated with lipopolysaccaride (LPS) to activate inducible nitric oxide synthase (iNOS) to produce nitric oxide. Nitric oxide (NO) is implicated in the apoptosis of cancer cells via regulation of RXRs. There is a tight correlation between the % reduction of iNOS and efficacy in preclinical lung cancer models. The in vitro iNOS assay is rapid, reproducible, quantitative and predictive, as NO production is measured in culture medium using the Griess reaction. Values are either presented as % inhibition or IC50 values.

[3] = system: SREBP; assay: SREBP induction in human liver (HepG2) cells, RT-PCR; assay type: cell-based; design: key to SREBP: fold induction vs DMSO control; conditions: for SREBP: 300 nM, Control 1.00, lower numbers indicate better safety, Table 2; for SREBP activation: fold induction compared to DMSO, several values per cell, Table 6
Experimental: The SREBP transcription factor is involved in triglyceride synthesis, and its activation correlates with increased triglycerides in vivo. […] Lower numbers indicate better safety. […] Lower numbers indicate better safety. Also, for Table 6, SREBP activation was measured as fold induction compared to DMSO, where a lower value indicates the compound is an improvement over a control.

[4] = LogD at pH 7.4; assay type: physicochemical; conditions: pH 7.4 buffer
Experimental: Note that for Table 6, Log D is the distribution constant, which is descriptor of the lipophilicity of a molecule. This was determined using an aqueous phase that was adjusted to pH 7.4 using a buffer.

[5] = molecular target: T1, human RXRa (Homo sapiens, UniProt P19793); assay: RXR activation luciferase reporter assay; assay type: cell-based; conditions: luciferase, Control 0, higher numbers indicate higher potency
T1 sequence (P19793 1-462): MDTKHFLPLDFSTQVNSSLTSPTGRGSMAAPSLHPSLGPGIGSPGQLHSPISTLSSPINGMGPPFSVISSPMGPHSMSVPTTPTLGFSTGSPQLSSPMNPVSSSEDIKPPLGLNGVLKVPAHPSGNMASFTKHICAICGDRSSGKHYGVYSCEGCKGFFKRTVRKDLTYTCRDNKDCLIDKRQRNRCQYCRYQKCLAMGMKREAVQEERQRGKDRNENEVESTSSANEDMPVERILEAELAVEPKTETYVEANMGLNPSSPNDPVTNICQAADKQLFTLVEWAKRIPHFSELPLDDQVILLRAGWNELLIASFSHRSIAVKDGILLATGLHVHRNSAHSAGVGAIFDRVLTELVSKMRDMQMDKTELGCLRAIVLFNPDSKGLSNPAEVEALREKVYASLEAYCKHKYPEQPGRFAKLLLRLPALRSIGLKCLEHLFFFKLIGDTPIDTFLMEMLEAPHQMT
Description: Rexinoids are agonists for the retinoid X receptors (RXRs). In this assay, the human RXRa promoter is functionally linked to a luciferase reporter gene. Changes in luciferase expression served as a sensitive surrogate measure of RXR activity. Higher numbers indicate higher potency.

[6] = system: mammary gland tumors of MMTV-Neu mice; assay: MMTV-Neu mouse model of HER2 positive breast cancer, rexinoid in diet; conditions: 100 mg/kg diet; LG268 5 days, CW-V-125 10 days; western blot and/or immunohistochemistry
Experimental: Tumors or mammary glands were homogenized in EBC buffer (1M Tris pH 8, 5M NaCl) with the same protease inhibitors and 10% NP-40 and incubated on ice for 30 min. Protein concentrations were determined by the BCA assay (Sigma-Aldrich). Proteins were resolved by SDS-PAGE, transferred to a nitrocellulose membrane and analyzed with the following antibodies: vinculin, p-STAT1, p-STAT3, p-STAT5 and mouse and rabbit secondary antibodies (Cell Signaling); PD-1, CD206 (Abcam); PD-L1 (R&D). ImageJ was used to quantify the immunoblots, and results were plotted and statistically analyzed using Prism 6. All images shown are representative of 3 independent experiments.
One third of the tumor, mammary gland and spleen removed from MMTV-neu or MMTV-PyMT mice were minced separately and incubated in digestion media consisting of collagenase (300 U/ml, Sigma), dispase (1 U/ml, Worthington), and DNAse (2 U/ml, Calbiochem) for 30 minutes at 37° C. with stirring. Cells were then passed through a 40 μm cell strainer (BD Falcon), and red blood cells eliminated with lysis solution. […] Propidium iodide staining was used to exclude dead cells.
One third of the tumor, spleen and one mammary was removed from MMTV-neu and PyMT mice and fixed in 10% phosphate-buffered formalin for 48 hours, embedded in paraffin blocks, and sectioned (5-6 μm). Hydrogen peroxide was used to quench endogenous peroxidase activity. Sections were immunostained with antibodies raised against CD206 (1:200, Abcam), Gr1 (1:40, BM8, R&D), CD8 (1:40, Biolegend), FOXP3 (1:50, EBiosciences), PD-1 (1:100, Abcam), PD-L1 (1:50, Abcam), cleaved caspase 3 (Cell Signaling) and visualized with biotinylated anti-rabbit or anti-rat secondary antibodies (Cell Signaling or Vector Labs). Signal was detected using a DAB substrate (Cell Signaling) following the manufacturer's recommendations. Sections were counterstained with hematoxylin (Vector Labs).
Both rexinoid treatments were 100 mg/kg of diet, which is equivalent to 25 mg/kg of body weight (FIG. 1B).

[7] = RAW264.7, 125 nM, Control 100, lower numbers indicate higher efficacy, read-out: NO Assay
[8] = RAW264.7, 500 nM, Control 100, lower numbers indicate higher efficacy, read-out: NO Assay
[9] = percent of the LPS-stimulated control, lower is better, Table 6
[10] = at 300 nM, percent of the LPS-stimulated control, lower is better, Table 6, read-out: iNOS suppression

Structure (SMILES)	PD-L1 ([1]; 100 nM)	activity at 0.125 µM ([2]; RAW264.7, read-out: NO Assay)	activity at 0.5 µM ([2]; RAW264.7, read-out: NO Assay)	SREBP [3]	logD [4]	other results
CCN(c1cc(C(F)(F)F)cc(C(F)(F)F)c1)c1ccc(C(=O)O)cn1 [Compound 15, 6-{[3,5-bis(trifluoromethyl)phenyl](ethyl)amino}pyridine-3-carboxylic Acid]	34.8	87%	27.9%	1.11	–	–
CC(C)(C)c1cc(C(C)(C)C)cc(C2(c3ccc(C(=O)O)cn3)CC2)c1	–	–	–	–	2.8	–
CCCCN(c1cc(C(C)(C)C)cc(C(C)(C)C)c1)c1ccc(C(=O)O)cn1 [Compound 19]	50.2	–	–	4.77	–	activity at 0.125 µM [2, 7]: 45.6%; activity at 0.5 µM [2, 8]: 9.4%; RXR assay ([5]; 100 nM): 13422; RXR assay ([5]; 2500 nM): 24350
CCN(c1ccc(C(=O)O)cn1)c1cc(C(C)(C)C)ccc1C [Compound 12, 6-[(5-tert-butyl-2-methylphenyl)(ethyl)amino]pyridine-3-carboxylic Acid]	45.8	44.2%	16.7%	1.69	–	–
CCN(c1cc(C(F)(F)F)cc(C(F)(F)F)c1)c1ccc(C(=O)O)cn1 [drawing 119]	–	–	–	–	1.5	activity at 0.1 µM [2, 9]: 24%; activity at 0.3 µM [2, 10]: 15%; SREBP activation [3]: 0.95 fold induction and 1.2 fold induction
C/C(=C/C=C/C(C)=C/C(=O)O)c1cc(C(C)(C)C)cc(C(C)(C)C)c1OCC(F)F [LG101506, reference compound]	67.2	–	–	1.12	–	NO Assay ([2]; 125 nM, Control 100, lower numbers indicate higher efficacy): 56.3; NO Assay ([2]; 500 nM, Control 100, lower numbers indicate higher efficacy): 16.3; RXR assay ([5]; 100 nM): 1077; RXR assay ([5]; 2500 nM): 558
C=C(c1ccc(C(=O)O)cc1)c1cc(C(C)C)c(OCC)cc1C [drawing 115]	–	–	–	–	2.6	activity at 0.3 µM [2, 10]: 45%; SREBP activation [3]: 1.4 fold induction
CC(C)(C)c1cc(N(CC2CC2)c2ccc(C(=O)O)cn2)cc(C(C)(C)C)c1 [drawing 118]	–	–	–	–	3.4	activity at 0.1 µM [2, 9]: 19%; activity at 0.3 µM [2, 10]: 13%
C=C(c1ccc(C(=O)O)cc1)c1ccc(OCC(C)C)c(C(C)C)c1 [drawing 110]	–	–	–	–	3	activity at 0.3 µM [2, 10]: 75%; SREBP activation [3]: 2 fold induction
CCN(c1cc(C(C)(C)C)cc(C(C)(C)C)c1)c1ccc(C(=O)O)cn1 [Compound 9, 6-[(3,5-di-tert-butylphenyl)(ethyl)amino]pyridine-3-carboxylic Acid]	39.7	76.3%	26.8%	2.70	–	activity at 0.3 µM ([2]; read-out: iNOS (300 nM)): ~25%
CC(C)(C)c1cc(N(CC2CC2)c2ccc(C(=O)O)cn2)cc(C(C)(C)C)c1 [Compound 14, 6-[(cyclopropylmethyl)(3,5-di-tert-butylphenyl)amino]pyridine-3-carboxylic Acid]	46.2	78.2%	25.9%	2.37	–	–
CCN(c1ccc(C(=O)O)cc1)c1cc(C(C)(C)C)cc(C(C)(C)C)c1 [Compound 8, 4-[(3,5-di-tert-butylphenyl)(ethyl)amino]benzoic Acid]	31.2	> 80%	31.5%	1.95	–	RXR assay ([5]; 100 nM): 1009; RXR assay ([5]; 2500 nM): 23514
CCN(c1cc(C(C)(C)C)cc(C(C)(C)C)c1)c1ncc(C(=O)O)cn1 [Compound 10, 2-[(3,5-di-tert-butylphenyl)(ethyl)amino]pyrimidine-5-carboxylic Acid]	32	48.6%	19%	1.44	–	RXR assay ([5]; 100 nM): 1007; RXR assay ([5]; 2500 nM): 17963
C=C(c1ccc(C(=O)O)cc1)c1cc(C(C)(C)C)cc(C(C)(C)C)c1 [drawing 116]	–	–	–	–	3.8	activity at 0.3 µM [2, 10]: 61%
Cc1cc(OCC(C)C)c(C(C)C)cc1C1(c2ccc(C(=O)O)cn2)CC1	–	–	–	–	2.6	–
C=C(c1ccc(C(=O)O)cc1)c1cc(C(C)(C)C)cc(C(C)(C)C)c1 [Compound 3, 4-[1-(3,5-di-tert-butylphenyl)ethenyl]benzoic Acid]	26.5	42.5%	19.8%	1.14	–	activity at 0.3 µM ([2]; read-out: iNOS (300 nM)): ~65%; RXR assay ([5]; 100 nM): 523; RXR assay ([5]; 2500 nM): 8163
CC(C)(C)c1cc(-n2c(C(F)(F)F)nc3cc(C(=O)O)ccc32)cc(C(C)(C)C)c1 [Compound 7, 1-(3,5-di-tert-butylphenyl)-2-(trifluoromethyl)-1H-1,3-benzodiazole-5-carboxylic Acid]	44.2	38.7%	23.6%	1.57	–	activity at 0.3 µM ([2]; read-out: iNOS (300 nM)): 55%
CCCN(c1cc(C(C)(C)C)cc(C(C)(C)C)c1)c1ccc(C(=O)O)cn1 [Compound 13, 6-[(3,5-di-tert-butylphenyl)(propyl)amino]pyridine-3-carboxylic Acid]	67.9	–	–	2.44	–	activity at 0.125 µM [2, 7]: 94.5%; activity at 0.5 µM [2, 8]: 32%; RXR assay ([5]; 100 nM): 16063; RXR assay ([5]; 2500 nM): 26703
CC(/C=C/[C@@H]1C[C@]1(C)c1ccc2c(c1)C(C)(C)CCC2(C)C)=C\C(=O)O [VTP194204]	–	–	–	–	–	PD-L1 Levels ([1]; 100 nM): 63.8; PD-L1 Levels ([1]; 1000 nM): 70.9
CCN(c1ccc(C(=O)O)cn1)c1cc2c(cc1C)C(C)(C)CCC2(C)C [CW-V-125]	–	–	–	–	–	PD-L1 Levels ([1]; 100 nM): 72.5; PD-L1 Levels ([1]; 1000 nM): 69.9; PD-L1 expression in tumors vs control [6]: increases
CCN(c1ccc2c(c1)C(C)(C)CCC2(C)C)c1ncc(C(=O)O)cn1 [CW-V-127]	–	–	–	–	–	PD-L1 Levels ([1]; 100 nM): 65.1; PD-L1 Levels ([1]; 1000 nM): 64.5
